Experimental data from patent US8835389B2, “Use of calcitonin for the treatment of RA” (priority 2005, dated 2014).
No end group written: not given here.

Assays:
[1] = in vivo
[2] = Water solubility of delivery agents
[3] = system: Collagen Induced Arthritis model (CIA-model) in lewis rats; assay: Collagen Induced Arthritis model (CIA-model), serum CTX-II; type: in vivo; details: day 21 after collagen injection, 50 mg/kg 5-CNAC+calcitonin 2 mg/kg twice daily, versus CIA-group
Text: Arthritis induced in rodents by the systemic administration of type II collagen (CII) is an experimental model with many resemblances to RA, and is widely used for studying the disease processes (reviewed in Wooley P H, Chapedelaine J M. Immunogenetics of collagen-induced arthritis. Crit Rev Immunol 1987; 8: 1-22; and Trentham D E. Collagen arthritis as a relevant model for rheumatoid arthritis. Arth Rheum 1982; 25: 9116).
Upon immunization with purified CII in complete Freund's adjuvant, genetically susceptible strains of rodents develop arthritis, which is characterized by cellular and humoral immune responses to CII. […]
Animals are monitored for signs of arthritis one week post immunization on a daily basis and a clinical scoring system is adopted wherein each limb is given a clinical score on the basis of visual signs of oedema and/or erythema as follows: 0=normal, 1=slight swelling and/or erythema at the base of the paw, 2=frank oedema and erythema involving the entire paw, 2·5=pronounced oedema and erythema leading to an incapacitated limb mobility, 3=ankylosis, as previously described in Malfait A M, Butler D M, Presky D H et al., Blockade of IL-12 during the induction of collagen-induced arthritis (CIA) markedly attenuates the severity of the arthritis. […]

O=C(O)CCCCCCCNC(=O)c1cc(Cl)ccc1O [5 CNAC, N-(5-chlorosalicyloyl)-8-aminocaprylic acid]
absorbed by the gastro-intestinal tract [1]: greater than 90%

O=C(O)CCCCCCCCCNC(=O)c1ccccc1O [SNAD, N-(10-[2-hydroxybenzoyl]amino)decanoic acid]
water solubility [2]: very water soluble

Calcitonin (CGNLSTCMLGTYTQDFNKFHTFPQTAIGVGAP; ends and bridges not checked; cysteine pairing not given here; UniProt P01258 85-116, looked up)
reduction of the increase in serum c-terminal telopeptide of type II collagen (serum CTX-II) [3]: 33%
